Measured values: US20250195521A1 (Revolution Medicines, Inc., priority 2020, published 2025)
pEC50, pIC50: −log10 of the molar value. Read-outs that look alike come from different tables or passages of the source.

Experiments:
[1] = 18-membered ring
[2] = test system: Capan-1 cells (K-Ras G12V); test: CellTiter-Glo cell viability, Capan-1; type: cell-based, human; conditions: Homo sapiens, CAPAN-1, 120 h, K-Ras G12V, 5-day treatment; read-out: Capan-1 Cell Viability IC50
Method in brief: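 Endpoint: CellTiter-Glo luminescence on day 5, following ~30 min at room temperature. Data as (sample/mean DMSO)×100, four-parameter logistic fit.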

NCI-H358 (K-Ras G12C) = test: CellTiter-Glo cell viability assay, NCI-H358; type: cell-based, human; conditions: Homo sapiens, NCI-H358, 120 h, 5-day treatment; read-out: H358 Cell Viability assay data (K-Ras G12C, IC50)
Method in brief: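 After direct compound addition, plates were incubated to day 5 and equilibrated at room temperature for about 30 minutes before CellTiter-Glo reading. Values derive from luminescence relative to the DMSO mean, fitted with a four-parameter logistic model.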

[3] = target: K-Ras G12C(GMP-PNP) binding to BRAF RBD (Homo sapiens (Human), UniProt P01116+P62937, G12C); test: Disruption of BRAF RBD interaction with K-Ras (FRET / MOA assay), K-Ras G12C; type: biochemical; conditions: read-out: KRAS G12C FRET IC50
Method in brief: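 TR-FRET readout: after 3 h compound incubation at 25 °C, anti-His Eu and anti-GST allophycocyanin (10 and 50 nM final) added for a further 1.5 h. Dilution series was 10-point, 3-fold, top 30 μM final. Ras–cyclophilin A ternary complex formation blocks the BRAF RBD interaction; IC50 derived from reduced FRET ratio relative to DMSO.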

[4] = target: KRAS G12S binding to BRAF RBD (Homo sapiens (Human), UniProt P01116+P62937, G12S); test: Ras-Raf disruption/FRET/MOA assay, KRAS G12S; type: biochemical
Text: (§1) Note—The following protocol describes a procedure for monitoring disruption of K-Ras G12C(GMP-PNP) binding to BRAF^RBD by a compound of the invention. This protocol may also be executed substituting other Ras proteins or nucleotides.
(§2) The purpose of this biochemical assay was to measure the ability of test compounds to facilitate ternary complex formation between a nucleotide-loaded K-Ras isoform and Cyclophilin A; the resulting ternary complex disrupts binding to a BRAF^RBD construct, inhibiting K-Ras signaling through a RAF effector. Data is reported as IC50 values.
(§3) Compound was present in plate wells as a 10-point 3-fold dilution series starting at a final concentration of 30 μM. After incubation at 25° C. for 3 hours, a mixture of Anti-His Eu—W1024 and anti-GST allophycocyanin was then added to assay sample wells at final concentrations of 10 nM and 50 nM, respectively, and the reaction incubated for an additional 1.5 hours. […] Compounds that facilitate disruption of a K-Ras: RAF complex were identified as those eliciting a decrease in the TR-FRET ratio relative to DMSO control wells.

[5] = target: KRAS WT binding to BRAF RBD (Homo sapiens (Human), UniProt P01116+P62937); test: Ras-Raf disruption/FRET/MOA assay, KRAS WT; type: biochemical
Text: Disruption of B-Raf Ras-binding Domain (BRAF^RBD) Interaction with K-Ras by Compounds of the Invention (also called a FRET assay or an MOA assay)
as §1, §2
as §3, with “In assay buffer containing 25 mM HEPES pH 7.3, 0.002% Tween20, 0.1% BSA, 100 mM NaCl and 5 mM MgCl2, tagless Cyclophilin A, His6-K-Ras-GMPPNP, and GST-BRAF^RBD were combined in a 384-well assay plate at final concentrations of 25 μM, 12.5 nM and 50 nM, respectively. Compound was” for “Compound was”

[6] = test system: K-Ras G12C (NCI-H358 cells); test: Potency assay: pERK in NCI-H358 cells; type: cell-based, human; conditions: Homo sapiens; NCI-H358 cells, 4 hours; read-out: pERK EC50 (H358 KRAS G12C)
Method in brief: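 Cells plated the day before were exposed for 4 h at 37° C, 5% CO2 to a 10-point, 3-fold DMSO dilution series (10 mM top stock), in duplicate. Phospho-ERK was read by AlphaLISA SureFire Ultra or by In-Cell Western with DRAQ5 DNA stain, and IC50 came from a 4-parameter sigmoidal fit.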

[7] = target: KRAS G13D binding to BRAF RBD (Homo sapiens (Human), UniProt P01116+P62937, G13D); test: Ras-Raf disruption/FRET/MOA assay, KRAS G13D; type: biochemical
Text: as §1, §2, §3

[8] = target: NRAS G12C binding to BRAF RBD (Homo sapiens (Human), UniProt P01111+P62937, G12C); test: Ras-Raf disruption/FRET/MOA assay, NRAS G12C; type: biochemical
Text: as §1, §2, §3

Sequence of K-Ras G12C(GMP-PNP) binding to BRAF RBD (P01116 other isoform, or with tags, fused parts or gaps G12C): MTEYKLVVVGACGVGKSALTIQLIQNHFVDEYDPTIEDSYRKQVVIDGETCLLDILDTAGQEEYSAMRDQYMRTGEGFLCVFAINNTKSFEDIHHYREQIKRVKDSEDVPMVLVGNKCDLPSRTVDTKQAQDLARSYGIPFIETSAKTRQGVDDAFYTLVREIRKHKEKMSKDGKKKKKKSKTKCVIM
Sequence of K-Ras G12C(GMP-PNP) binding to BRAF RBD (P62937 whole entry): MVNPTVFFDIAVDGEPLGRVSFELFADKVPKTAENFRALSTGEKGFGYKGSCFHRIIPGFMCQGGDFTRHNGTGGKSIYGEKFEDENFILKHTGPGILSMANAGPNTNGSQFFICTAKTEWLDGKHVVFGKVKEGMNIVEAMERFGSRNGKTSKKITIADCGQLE
Sequence of KRAS WT binding to BRAF RBD (P01116 other isoform, or with tags, fused parts or gaps): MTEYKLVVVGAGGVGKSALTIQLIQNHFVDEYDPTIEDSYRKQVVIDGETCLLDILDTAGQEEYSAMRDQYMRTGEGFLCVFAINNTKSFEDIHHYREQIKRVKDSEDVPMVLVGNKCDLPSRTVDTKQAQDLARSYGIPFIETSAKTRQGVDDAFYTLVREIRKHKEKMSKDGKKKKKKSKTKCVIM
Sequence of KRAS WT binding to BRAF RBD (P62937 whole entry, the tested form may be a part): as the sequence (P62937 whole entry) above
Sequence of KRAS G12S binding to BRAF RBD (P01116 other isoform, or with tags, fused parts or gaps G12S): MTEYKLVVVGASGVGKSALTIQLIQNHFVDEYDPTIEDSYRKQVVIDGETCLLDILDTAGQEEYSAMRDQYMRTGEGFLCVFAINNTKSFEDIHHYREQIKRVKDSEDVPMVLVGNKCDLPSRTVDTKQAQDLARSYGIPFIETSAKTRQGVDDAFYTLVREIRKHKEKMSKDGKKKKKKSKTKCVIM
Sequence of KRAS G12S binding to BRAF RBD (P62937 whole entry): as the sequence (P62937 whole entry) above
Sequence of KRAS G13D binding to BRAF RBD (P01116 other isoform, or with tags, fused parts or gaps G13D): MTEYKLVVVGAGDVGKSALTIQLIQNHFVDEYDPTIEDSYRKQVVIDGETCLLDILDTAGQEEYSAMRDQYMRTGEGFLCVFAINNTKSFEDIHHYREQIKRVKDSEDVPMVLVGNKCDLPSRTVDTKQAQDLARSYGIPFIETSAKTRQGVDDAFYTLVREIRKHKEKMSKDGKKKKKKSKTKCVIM
Sequence of KRAS G13D binding to BRAF RBD (P62937 whole entry): as the sequence (P62937 whole entry) above
Sequence of NRAS G12C binding to BRAF RBD (P01111 whole entry G12C): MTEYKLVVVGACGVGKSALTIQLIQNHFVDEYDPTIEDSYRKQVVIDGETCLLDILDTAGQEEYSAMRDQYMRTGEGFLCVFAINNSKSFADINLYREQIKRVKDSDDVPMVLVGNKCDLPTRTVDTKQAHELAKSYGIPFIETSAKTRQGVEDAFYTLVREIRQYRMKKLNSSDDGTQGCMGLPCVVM
Sequence of NRAS G12C binding to BRAF RBD (P62937 whole entry): as the sequence (P62937 whole entry) above

CCn1c(-c2cccnc2[C@H](C)OC)c2c3cc(ccc31)-c1csc(n1)C[C@H](NC(=O)OC(C)(C)C)C(=O)N1CCC[C@H](N1)C(=O)OCC(C)(C)C2
ring closure, isolated yield ([1]; from CCn1c(-c2cccnc2[C@H](C)OC)c(CC(C)(C)CO)c2cc(-c3csc(C[C@H](NC(=O)OC(C)(C)C)C(=O)N4CCC[C@@H](C(=O)O)N4)n3)ccc21, ester bond, EDCI/HOBt/DIEA, DCM, 12.65 mM, 16.0 h): 81.1%

CCn1c(-c2cccnc2[C@H](C)OC)c2c3cc(ccc31)-c1csc(n1)C[C@H](NC(=O)OC(C)(C)C)C(=O)N1CC[C@H](C)[C@H](N1)C(=O)OCC(C)(C)C2
ring closure, isolated yield ([1]; from CCn1c(-c2cccnc2[C@H](C)OC)c(CC(C)(C)COC(=O)[C@H]2NN(C(=O)[C@H](Cc3nc(Br)cs3)NC(=O)OC(C)(C)C)CC[C@@H]2C)c2cc(B3OC(C)(C)C(C)(C)O3)ccc21, cc_pd bond, Pd(DtBPF)Cl2/K3PO4, dioxane/H2O 5:1, 17.5 mM, 60.0 °C, 1.0 h): 44.7%

CCn1c(-c2cccnc2[C@H](C)OC)c2c3cc(ccc31)N1CCC[C@@H](C[C@H](NC(=O)OCc3ccccc3)C(=O)N3CCC[C@H](N3)C(=O)OCC(C)(C)C2)C1
ring closure, isolated yield ([1]; from CCn1c(-c2cccnc2[C@H](C)OC)c(CC(C)(C)CO)c2cc(N3CCC[C@@H](C[C@H](NC(=O)OCc4ccccc4)C(=O)N4CCC[C@@H](C(=O)O)N4)C3)ccc21, ester bond, EDCI/HOBt/DIEA, DCM, 36.7 mM, 25.0 °C, 6.0 h): 36%

CCn1c(-c2cnccc2COC)c2c3cc(ccc31)-c1cc(O)cc(c1)C[C@H](NC(=O)[C@H](C(C)C)N(C)C(=O)O[C@H]1CCOC1)C(=O)N1CCC[C@H](N1)C(=O)OCC(C)(C)C2 [Compound A260]
pIC50 [2]: 5.00 to 6.00
pIC50 (NCI-H358 (K-Ras G12C)): > 8.00
pIC50 [3]: 7.00 to 8.00
pIC50 [4]: 7.00 to 8.00
pIC50 [5]: 7.00 to 8.00

C/C=C/S(=O)(=O)N1CC[C@H](C(=O)N(C)[C@H](C(=O)N[C@H]2Cc3cc(O)cc(c3)-c3ccc4c(c3)c(c(-c3ccncc3[C@H](C)OC)n4CC)CC(C)(C)COC(=O)[C@@H]3CCCN(N3)C2=O)C(C)C)C1 [Compound A280]
pEC50 [6]: > 5.30
pIC50 (NCI-H358 (K-Ras G12C)): 7.00 to 8.00
pIC50 [3]: 7.00 to 8.00
pIC50 [5]: 7.00 to 8.00
pIC50 [7]: 6.00 to 7.00
pIC50 [8]: 6.00 to 7.00

CCn1c(-c2cccnc2[C@H](C)OC)c2c3cc(ccc31)-c1csc(n1)C[C@H](NC(=O)[C@H](C(C)C)N(C)C(=O)N1CC(C#N)C1)C(=O)N1CCC[C@H](N1)C(=O)OCC(C)(C)C2 [Compound A382]
pIC50 (NCI-H358 (K-Ras G12C)): > 8.00
pIC50 [4]: 7.00 to 8.00
pIC50 [5]: 7.00 to 8.00

CCn1c(-c2cc(C3CCN(C)CC3)cnc2[C@H](C)OC)c2c3cc(ccc31)-c1cc(O)cc(c1)C[C@H](NC(=O)[C@H](C(C)C)N(C)C(=O)[C@@H]1OCC[C@@H]1c1ccccc1)C(=O)N1CCC[C@H](N1)C(=O)OCC(C)(C)C2 [Compound A577]
pEC50 [6]: > 5.30
pIC50 (NCI-H358 (K-Ras G12C)): > 8.00
pIC50 [4]: 7.00 to 8.00

CCn1c(-c2cc(N3CCN(C)CC3)cnc2[C@H](C)OC)c2c3cc(ccc31)-c1cc(O)cc(c1)C[C@H](NC(=O)[C@H](C(C)C)N(C)C(=O)[C@@H]1OCC[C@@H]1c1ccccc1)C(=O)N1CCC[C@H](N1)C(=O)OCC(C)(C)C2 [Compound A594]
pEC50 [6]: > 5.30
pIC50 (NCI-H358 (K-Ras G12C)): > 8.00
pIC50 [3]: 7.00 to 8.00
pIC50 [5]: 7.00 to 8.00

(2S,6S)—N-((6^3S,3S,4S,Z)-3-(2-(dimethylamino) ethoxy)-1^1-ethyl-1^2-(2-((S)-1-methoxyethyl) pyridin-3-yl)-10, 10-dimethyl-5,7-dioxo-6^1,6^2,6^3,6^4,6^5,6^6-hexahydro-1^1H-8-oxa-2 (4,2)-thiazola-1 (5,3)-indola-6 (1,3)-pyridazinacycloundecaphane-4-yl)-2,4,6-trimethylpiperazine-1-carboxamide
ring closure, isolated yield ([1]; cc_pd bond, Pd(dtbpf)Cl2/K3PO4, toluene/1,4-dioxane/H2O 3:1:1, 57.0 mM, 60.0 °C): 50%

(6^3S,3S,4S,Z)-4-(dibenzylamino)-1^1-ethyl-3-methoxy-1^2-(2-((S)-1-methoxyethyl) pyridin-3-yl)-10, 10-dimethyl-6^1,6^2,6^3,6^4,6^5,6^6-hexahydro-1^1H-8-oxa-2 (4,2)-thiazola-1 (5,3)-indola-6 (1,3)-pyridazinacycloundecaphane-5,7-dione
ring closure, isolated yield ([1]; cc_pd bond, Pd(DtBPF)Cl2/K3PO4, dioxane/H2O 5:1, 40.0 mM, 80.0 °C): 44.4%

(9H-fluoren-9-yl) methyl (1R,5S,7r)-7-(5-((6^3S,3S,4S,Z)-4-((tert-butoxycarbonyl) amino)-3-ethoxy-1^1-ethyl-10, 10-dimethyl-5,7-dioxo-6^1,6^2,6^3,6^4,6^5,6^6-hexahydro-1^1H-8-oxa-2 (4,2)-thiazola-1 (5,3)-indola-6 (1,3)-pyridazinacycloundecaphane-12-yl)-6-((S)-1-methoxyethyl) pyridin-3-yl)-3-oxa-9-azabicyclo[3.3.1]nonane-9-carboxylate
ring closure, isolated yield ([1]; cc_pd bond, Pd(DtBPF)Cl2/K3PO4, toluene/1,4-dioxane/H2O (3:1:1), […], 80.0 °C): 65%

(9H-fluoren-9-yl) methyl ((6^3S,4S,Z)-3-(dimethylamino)-1^1-ethyl-1^2-(2-((S)-1-methoxyethyl) pyridin-3-yl)-10, 10-dimethyl-5,7-dioxo-6^1,6^2,6^3,6^4,6^5,6^6-hexahydro-1^1H-8-oxa-2 (4,2)-thiazola-1 (5,3)-indola-6 (1,3)-pyridazinacycloundecaphane-4-yl) carbamate
ring closure, isolated yield ([1]; cc_pd bond, Pd(dtbpf)Cl2/K3PO4, toluene/1,4-dioxane/H2O 3:1:1, 27.3 mM, 60.0 °C): 19%

(9H-fluoren-9-yl)methyl-7-(5-((6^3S,3S,4S,Z)-4-((tert-butoxycarbonyl) amino)-3-ethoxy-1^1-ethyl-10,10-dimethyl-5,7-dioxo-6^1,6^2,6^3,6^4,6^5,6^6-hexahydro-1^1H-8-oxa-2 (4,2)-thiazola-1 (5,3)-indola-6 (1,3)-pyridazinacycloundecaphane- 12-yl)-6-((S)-1-methoxyethyl) pyridin-3-yl)-3-oxa-9-azabicyclo[3.3.1] non-6-ene-9-carboxylate
ring closure, isolated yield ([1]; cc_pd bond, Pd(dppf)Cl2.DCM/K3PO4, toluene/dioxane/H2O 3:1:1, 205.0 mM, 80.0 °C): 49%

benzyl 4-(5-((3′S,3′S,4′S,Z)-4′-((tert-butoxycarbonyl) amino)-3′-ethoxy-1′-(2-isopropoxyethyl)-5′, 7′-dioxospiro[cyclopropane-1,10′-8-oxa-2 (4,2)-thiazola-1 (5,3)-indola-6 (1,3)-pyridazinacycloundecaphan]-2′-yl)-6-((S)-1-methoxyethyl) pyridin-3-yl) piperazine-1-carboxylate
ring closure, isolated yield ([1]; cc_pd bond, XPhos-Pd-G3/XPhos/K3PO4, toluene/1,4-dioxane/H2O 3:1:1, 28.0 mM, 65.0 °C): 27%
